Patent publication US9618524B2, “Method, composition, isolation and identification of a plaque particle and related biomarker” (Plaxgen Inc., priority 2012, dated 2017)

Columns and labels:
Test in all cases: Mass spectroscopy proteomics, semi-quantitative binding affinity of serum proteins (plaqueproteome, Table 2)
Conditions in all cases: higher number = stronger affinity
[1] = target: T1, Abeta-42 plaque particles (Homo sapiens, UniProt P05067)
T1 construct: Abeta 1-42
Method in brief: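 AD patient serum or plasma (50% in PBS) was incubated with Abeta-42 aggregates (30 μg) for 1 h at 37 °C, then stained with Thioflavin S for 30 min. Labeled particles were FACS-sorted, trypsin/Lys-C digested overnight and analyzed by MS/MS. Sequest searched human UniProt; Scaffold/Protein Prophet validated the identifications.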

[2] = tested on: High Density cholesterol (Chl Large) plaque particles; parameters: species or system human
Method in brief: (§1)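 Serum or plasma from atherosclerotic subjects, diluted to 50% in PBS, was incubated with cholesterol aggregates (30 μg per 1 mL reaction) at 37° C for 1 hr. Small and large cholesterol plaque particles were sorted by flow cytometry gating, trypsin-digested and analysed by MS/MS against a human UniProt database.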

[3] = tested on: Low density cholesterol (Chl small) plaque particles; parameters: species or system human
Method in brief: as §1

[4] = target: T2, alpha-synuclein plaque particles (Homo sapiens, UniProt P37840)
T2 construct: 140 amino acids polypeptide
Method in brief: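 AD-subject plasma or serum (800 μL of 50%) mixed with 30 μg preformed alpha-synuclein aggregates for 1 h at 37 °C; Thioflavin S-positive particles isolated by flow sorting. After reduction, acrylamide alkylation and overnight tryptic digestion, serum proteins identified by MS/MS with Sequest and Scaffold.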

Tau plaque particles = tested on: Tau plaque particles; parameters: species or system human
Method in brief: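 Synthetic Tau-74 and Tau-275 peptides (1 mg/mL PBS, 37° C, 2 h) aggregated; 30 μg aggregates incubated with 50% serum/plasma 1 h at 37° C, stained with Thioflavin S, and plaque particles sorted by flow cytometry. Bound proteins trypsin-digested and identified by MS/MS against human UniProt.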

Substance	Semi-quantitative analysis of proteins binding to different plaque particles: Abeta-42 [1]	Semi-quantitative analysis of proteins binding to different plaque particles: Chl Large [2]	Semi-quantitative analysis of proteins binding to different plaque particles: Chl small [3]	Semi-quantitative analysis of proteins binding to different plaque particles: Synuclein [4]	Semi-quantitative analysis of proteins binding to different plaque particles: Tau (Tau plaque particles)
Cluster of Ig lambda-2 chain C regions	9	5	9	8	11
Serotransferrin	46	66	73	78	48
Isoform MBP-1 of Alpha-enolase	7	0	0	0	0
Cluster of Alpha-2-macroglobulin	32	43	43	44	45
Ig alpha-1 chain C region	9	10	8	11	12
Complement C4-B	32	44	35	37	52
Glyceraldehyde-3-phosphate dehydrogenase	5	0	0	0	0
Complement C1q subcomponent subunit B	0	1	0	2	2
Myosin-6	17	0	0	0	0
Ig heavy chain V-III region Gal	2	0	1	2	4
Ig heavy chain V-III region NIE	0	1	1	1	0
Complement component C8 gamma chain	0	0	1	2	2
Transthyretin	14	25	21	23	13
Lumican	0	4	3	0	0
Ig kappa chain V-I region HK102	5	1	1	1	1
Myosin-13	17	0	0	0	0
Complement component C8 beta chain	0	1	2	0	2
Apolipoprotein A-I	19	21	21	18	14
Ig gamma-1 chain C region	12	41	51	44	27
Myosin-1	22	0	0	0	0
Complement C3	63	73	67	71	85
Plasminogen	7	11	9	7	13
